What all share (type): functional
One assay relates to Bacillus subtilis. The experiment in a line: Antimicrobial activity against Bacillus subtilis after 48 hrs by paper disk assay.
In a further assay the test system is Micrococcus luteus. The experiment in a line: Antimicrobial activity against Sarcina lutea after 48 hrs by paper disk assay.
The next assay relates to Staphylococcus aureus. The experiment in a line: Antimicrobial activity against Staphylococcus aureus after 48 hrs by paper disk assay.
Another assay concerns Helminthosporium. The experiment in a line: Antimicrobial activity against Helminthosporium sativum after 96 hrs by paper disk assay.

Converted amounts (≈) assume the structure as drawn.

In the case of `CC1(C)S[C@@H]2[C@H](NC(=O)[C@H](N)c3ccccc3)C(=O)N2[C@H]1C(=O)O` [AMPICILLIN], the values for the MIC in the assay with Bacillus subtilis and with Micrococcus luteus were 0.05 µg/mL (≈ 0.143 µM) and 0.01 µg/mL (≈ 0.0286 µM), respectively.
In the case of `COc1c(C)c(OC(=O)c2c(C)cc(O)cc2O)c(C)c(C(=O)Oc2cc(O)c(C(=O)O)c(C)c2C)c1C` [COLLETOTRIC ACID], the MIC in the assay on Bacillus subtilis was 25 µg/mL (≈ 47.7 µM); against Staphylococcus aureus, 50 µg/mL (≈ 95.3 µM); in the assay on Micrococcus luteus, 50 µg/mL (≈ 95.3 µM); in the assay on Helminthosporium, 50 µg/mL (≈ 95.3 µM).
With `CC(C)(C)C(=O)C(Oc1ccc(Cl)cc1)n1cncn1` (configuration not stated) [TRIADIMEFON], the MIC with Helminthosporium was found to be 20 µg/mL (≈ 68.1 µM).

(Values after ChEMBL document CHEMBL1155626, “Metabolites of Colletotrichum gloeosporioides, an endophytic fungus in Artemisia mongolica” (2000).)
